Tested on: KDM5A and KDM5B (tri-methyl H3K4, ZR-75-1 breast cancer cell line)
Test: In vitro cell-based assay: tri-methyl H3K4 immuno-blotting in ZR-75-1 breast cancer cells
Conditions: Homo sapiens, 72 hours with test compound, read-out: Cellular IC50
Text: This quantitative immuno-blotting assay measures the amount tri-methylated histone H3 at amino acid Lysine number 4, a specific substrate […] of the direct enzymatic activity of the histone demethylases KDM5A and KDM5B from extracts of the ZR-75-1 breast cancer cell line.
This assay is a fluorometric immunoassay for the quantification of tri-methyl H3K4 extracted from cells treated with test compound and is used as a measure of the cellular inhibition of KDM5A/B.
ZR-75-1(PTEN null, ER+) breast cancer cells numbering 50,000 (ATCC) were seeded into each well of a 96-well tissue culture treated plate and then exposed to an 11 point dilution of test compound with final concentration ranges of test compound ranging from […] to 10 nM. […] Extracts were prepared containing all of the cellular histone material using detergent based lysis and sonication methods. These lysates were subsequently normalized for total protein content using a colorimetric bicinchonic acid assay (MicroBCA Pierce/Thermo Scientific). Normalized cell extracts were then subjected to typical immuno-blotting procedures using NuPage reagents (Life Technologies). Electrophoretically separated histones were then transferred and immobilized using polyvinylidene difluoride membrane (Immobilon-FL Millipore). The amount of tri-methylated lysine 4 of histone H3 was detected using an antibody specific to the tri-methylated state (Cell Signaling Technologies) and quantified on an infrared imager using a densitometry software package (Odyssey CLx, Image Studio, Li-Cor). This background subtracted densitometry value was reported as a ration of the GAPDH amount for that sample and then calculated as a percent of the DMSO treated sample. The software package XL-fit (IDBS) was then used to calculate a relative IC50 value for the dilution series of a given test compound according to the equation: fit=(D+((Vmax*(x^n))/((x^n)+(Km^n)))).

IC50 [nM]	Structure (SMILES)
1000 to 10000	O=C(O)c1ccnc(-n2nccc2OCc2ccc(F)cc2OCc2ccc(F)cc2)c1 [Example 118, 2-[5-[[4-fluoro-2-[(4-fluorophenyl)methoxy]phenyl]methoxy]pyrazol-1-yl]pyridine-4-carboxylic acid]
100 to 1000	Cc1ccc(COc2ccnn2-c2cc(C(=O)O)ccn2)c(C)c1 [Example 132, 2-[5-[(2,4-dimethylphenyl)methoxy]pyrazol-1-yl]pyridine-4-carboxylic acid]
100 to 1000	Cc1ccc(COc2ccnn2-c2cc(C(=O)O)ccn2)cc1F [Example 93, 2-[5-[(3-fluoro-4-methylphenyl)methoxy]pyrazol-1-yl]pyridine-4-carboxylic acid]
1000 to 10000	O=C(O)c1ccnc(-n2nccc2OCc2ccc(F)cc2CCc2ccc(F)cc2)c1 [Example 121, 2-[5-[[4-fluoro-2-[2-(4-fluorophenyl)ethyl]phenyl]methoxy]pyrazol-1-yl]pyridine-4-carboxylic acid]
1000 to 10000	Cc1cc(Br)ccc1COc1ccnn1-c1cc(C(=O)O)ccn1 [Example 142, 2-[5-[(4-bromo-2-methylphenyl)methoxy]pyrazol-1-yl]pyridine-4-carboxylic acid]
1000 to 10000	O=C(O)c1ccnc(-n2nccc2OCC2CCC(F)(F)CC2)c1 [Example 71, 2-{5-[(4,4-difluorocyclohexyl)methoxy]-1H-pyrazol-1-yl}pyridine-4-carboxylic acid]
100 to 1000	O=C(O)c1ccnc(-n2nccc2OCc2ccc(F)cc2)c1 [Example 40, 2-{5-[(4-fluorobenzyl)oxy]-1H-pyrazol-1-yl}pyridine-4-carboxylic acid]
1000 to 10000	O=C(O)c1ccnc(-n2nccc2OCc2ccc(Cl)c(OCC3CC3)c2)c1 [Example 140, 2-[5-[[4-chloro-3-(cyclopropylmethoxy)phenyl]methoxy]pyrazol-1-yl]pyridine-4-carboxylic acid]
1000 to 10000	Cc1ccc(COc2ccnn2-c2cc(C(=O)O)ccn2)c(F)c1 [Example 131, 2-[5-[(2-fluoro-4-methylphenyl)methoxy]pyrazol-1-yl]pyridine-4-carboxylic acid]
1000 to 10000	Cc1ccc(COc2ccnn2-c2cc(C(=O)O)ccn2)c(C#N)c1 [Example 134, 2-[5-[(2-cyano-4-methylphenyl)methoxy]pyrazol-1-yl]pyridine-4-carboxylic acid]
> 10000	O=C(O)c1ccnc(-n2nccc2OCc2cccc(F)c2)c1 [Example 41, 2-{5-[(3-fluorobenzyl)oxy]-1H-pyrazol-1-yl}pyridine-4-carboxylic acid]
1000 to 10000	COC(=O)c1ccnc(-n2nccc2OCc2ccc(C#N)cc2)c1 [Example 98, methyl 2-[5-[(4-cyanophenyl)methoxy]pyrazol-1-yl]pyridine-4-carboxylate]
1000 to 10000	Cc1cc(I)ccc1COc1ccnn1-c1cc(C(=O)O)ccn1 [Example 144, 2-[5-[(4-iodo-2-methylphenyl)methoxy]pyrazol-1-yl]pyridine-4-carboxylic acid]
1000 to 10000	O=C(O)c1ccnc(-n2nccc2OCc2ccccc2)c1 [Example 39, 2-(5-(benzyloxy)-1H-pyrazol-1-yl)isonicotinic acid]
100 to 1000	N#Cc1ccc(COc2ccnn2-c2cc(C(=O)O)ccn2)cc1 [Example 99, 2-[5-[(4-cyanophenyl)methoxy]pyrazol-1-yl]pyridine-4-carboxylic acid]
1000 to 10000	O=C(O)c1ccnc(-n2nccc2OCc2ccc(F)cc2F)c1 [Example 86, 2-[5-[(2,4-difluorophenyl)methoxy]pyrazol-1-yl]pyridine-4-carboxylic acid]
100 to 1000	CCc1ccc(COc2ccnn2-c2cc(C(=O)O)ccn2)cc1 [Example 56, 2-{5-[(4-ethylbenzyl)oxy]-1H-pyrazol-1-yl}pyridine-4-carboxylic acid]
100 to 1000	O=C(O)c1ccnc(-n2nccc2OCc2ccc(F)c(F)c2)c1 [Example 52, 2-{5-[(3,4-difluorobenzyl)oxy]-1H-pyrazol-1-yl}pyridine-4-carboxylic acid]
> 10000	CCc1cc(C#N)ccc1COc1ccnn1-c1cc(C(=O)O)ccn1 [Example 126, 2-[5-[(4-cyano-2-ethylphenyl)methoxy]pyrazol-1-yl]pyridine-4-carboxylic acid]

IC50 [nM]	Structure (SMILES)
100 to 1000	COc1cc(Cl)ccc1COc1ccnn1-c1cc(C(=O)O)ccn1 [Example 90, 2-[5-[(4-chloro-2-methoxyphenyl)methoxy]pyrazol-1-yl]pyridine-4-carboxylic acid]
1000 to 10000	O=C(O)c1ccnc(-n2nccc2OCc2ccc(Cl)c(OCC(F)(F)F)c2)c1 [Example 141, 2-[5-[[4-chloro-3-(2,2,2-trifluoroethoxy)phenyl]methoxy]pyrazol-1-yl]pyridine-4-carboxylic acid]
1000 to 10000	COc1cc(I)ccc1COc1ccnn1-c1cc(C(=O)O)ccn1 [Example 145, 2-[5-[(4-iodo-2-methoxyphenyl)methoxy]pyrazol-1-yl]pyridine-4-carboxylic acid]
1000 to 10000	CCc1cc(F)ccc1COc1ccnn1-c1cc(C(=O)O)ccn1 [Example 129, 2-[5-[(2-ethyl-4-fluorophenyl)methoxy]pyrazol-1-yl]pyridine-4-carboxylic acid]
1000 to 10000	O=C(O)c1ccnc(-n2nccc2OCc2ccc(F)c(Cl)c2)c1 [Example 76, 2-{5-[(3-chloro-4-fluorobenzyl)oxy]-1H-pyrazol-1-yl}pyridine-4-carboxylic acid]
100 to 1000	Cc1ccc(COc2ccnn2-c2cc(C(=O)O)ccn2)cc1Cl [Example 92, 2-[5-[(3-chloro-4-methylphenyl)methoxy]pyrazol-1-yl]pyridine-4-carboxylic acid]
1000 to 10000	Cc1ccc(COc2ccnn2-c2cc(C(=O)O)ccn2)c(Cl)c1 [Example 130, 2-[5-[(2-chloro-4-methylphenyl)methoxy]pyrazol-1-yl]pyridine-4-carboxylic acid]
1000 to 10000	O=C(O)c1ccnc(-n2nccc2OCc2ccc(Cl)c(OCc3ccc(F)cc3)c2)c1 [Example 138, 2-[5-[[4-chloro-3-[(4-fluorophenyl)methoxy]phenyl]methoxy]pyrazol-1-yl]pyridine-4-carboxylic acid]
1000 to 10000	CC(Oc1cc(F)ccc1COc1ccnn1-c1cc(C(=O)O)ccn1)c1ccccc1 (centres unmarked) [Example 137, 2-[5-[[4-fluoro-2-(1-phenylethoxy)phenyl]methoxy]pyrazol-1-yl]pyridine-4-carboxylic acid]
1000 to 10000	CC(Oc1cc(Cl)ccc1COc1ccnn1-c1cc(C(=O)O)ccn1)c1ccccc1 (centres unmarked) [Example 136, 2-[5-[[4-chloro-2-(1-phenylethoxy)phenyl]methoxy]pyrazol-1-yl]pyridine-4-carboxylic acid]
100 to 1000	COC(=O)c1ccnc(-n2nccc2OCc2ccc(Cl)cc2)c1 [Example 64, Methyl 2-{5-[(4-chlorobenzyl)oxy]-1H-pyrazol-1-yl}pyridine-4-carboxylate]
100 to 1000	Cc1ccc(COc2ccnn2-c2cc(C(=O)O)ccn2)cc1 [Example 55, 2-{5-[(4-methylbenzyl)oxy]-1H-pyrazol-1-yl}pyridine-4-carboxylic acid]
1000 to 10000	CCc1ccc(COc2ccnn2-c2cc(C(=O)O)ccn2)c(F)c1 [Example 151, 2-[5-[(4-ethyl-2-fluorophenyl)methoxy]pyrazol-1-yl]pyridine-4-carboxylic acid]
100 to 1000	O=C(O)c1ccnc(-n2nccc2OCc2ccc(Cl)cc2)c1 [Example 53, 2-{5-[(4-chlorobenzyl)oxy]-1H-pyrazol-1-yl}pyridine-4-carboxylic acid]
1000 to 10000	O=C(O)c1ccnc(-n2nccc2OCc2ccc(Cl)cc2F)c1 [Example 75, 2-{5-[(4-chloro-2-fluorobenzyl)oxy]-1H-pyrazol-1-yl}pyridine-4-carboxylic acid]
1000 to 10000	Cc1ccc(COc2ccnn2-c2cc(C(=O)O)ccn2)c(F)c1F [Example 94, 2-[5-[(2,3-difluoro-4-methylphenyl)methoxy]pyrazol-1-yl]pyridine-4-carboxylic acid]
100 to 1000	O=C(O)c1ccnc(-n2nccc2OCc2cccc(Cl)c2)c1 [Example 58, 2-{5-[(3-chlorobenzyl)oxy]-1H-pyrazol-1-yl}pyridine-4-carboxylic acid]
100 to 1000	Cc1cc(F)ccc1COc1ccnn1-c1cc(C(=O)O)ccn1 [Example 128, 2-[5-[(4-fluoro-2-methylphenyl)methoxy]pyrazol-1-yl]pyridine-4-carboxylic acid]
100 to 1000	COC(=O)c1ccnc(-n2nccc2OCc2ccc(F)c(F)c2)c1 [Example 63, methyl 2-{5-[(3,4-difluorobenzyl)oxy]-1H-pyrazol-1-yl}pyridine-4-carboxylate]

— patent US10173996B2, “Histone demethylase inhibitors” (CELGENE QUANTICEL RESEARCH, INC., priority 2012, dated 2019)
